Data reported in patent US20200032271A1, “COMBINATION THERAPY WITH LIPOSOMAL ANTISENSE OLIGONUCLEOTIDES” (Bio-Path Holdings, Inc., priority 2016, published 2020).
Values joined by “and” are separate entries in the source; they are usually repeats but may differ in a detail not shown here. Identical values can stand only once. [PEt] = P-ethoxy (ethyl phosphotriester) internucleoside linkage

Assays:
[1] = system: imatinib-sensitive and imatinib-resistant CML cell lines; assay: Growth inhibition and ERK1,2/Akt phosphorylation in CML cell lines; assay type: cell-based; conditions: preclinical studies
Excerpt: (§1) BP1001 is a neutral liposome incorporated with the nuclease-resistant, hydrophobic P-ethoxy antisense oligos targeted to Grb2 mRNA. In preclinical studies, BP1001 was effective in inducing growth inhibition and decreasing ERK1,2 and Akt phosphorylation in imatinib-sensitive and imatinib-resistant CML cell lines.

[2] = system: 32Dp210 Bcr-Abl positive leukemia cells; assay: Survival of mice injected with 32Dp210 Bcr-Abl positive leukemia cells, second study; assay type: in vivo
Description: In a second study in mice injected with 32Dp210 Bcr-Abl positive leukemia cells, treatment groups received BP1001 at 5, 10, or 15 mg/kg/dose administered intravenously beginning one day after injection of tumor cells, twice weekly for up to 7 weeks. Control groups received DOPC liposomes containing an oligonucleotide of random sequence (15 mg/kg/dose) on the same schedule. Mice were observed daily for moribundity/morbidity. Surviving mice in the control groups were euthanized on Day 41, and in the treatment groups on Day 48.

[3] = system: HL60 (Ph-negative, Bcr-Abl negative); assay: Inhibition of proliferation of leukemic cell lines by BP1001; assay type: cell-based, human; conditions: [BP1001] 0-12 μM, 5 days
Excerpt: as §1

K562 = assay: as above; assay type: cell-based, human; conditions: 4 days
Excerpt: as §1

BV173 = assay: as above; assay type: cell-based, human; conditions: 5 days
Excerpt: as §1

ALL-1 = assay: as above; assay type: cell-based, human; conditions: 5 days
Excerpt: as §1

[4] = system: 32Dp210 Bcr-Abl positive leukemia cells; assay: Survival of mice injected with 32Dp210 Bcr-Abl positive leukemia cells, first study; assay type: in vivo
Description: In one study, mice injected with 32Dp210 Bcr-Abl positive leukemia cells were treated with BP1001 (15 mg/kg/dose) or control (empty DOPC liposomes) intravenously beginning one day after injection of tumor cells, twice weekly for up to 6 weeks Mice were observed daily for moribundity/morbidity. All surviving mice were euthanized on Day 40. In mice injected with 32Dp210 Bcr-Abl positive leukemia cells, 60% treated with BP1001 survived to 40 days (end of study) compared to 17% of mice receiving empty liposomes. Mean survival duration in these treated animals was 31.6±13.1 days compared to 23.7±8.3 days in the empty liposome group (FIG. 6A).

[5] = system: phosphorylated Erk1,2 (pErk); assay: Flow cytometry of pErk levels in circulating leukemia cells of patients; assay type: in vivo, human; conditions: for pErk decrease (%) (Day 15) / pErk decrease (%) (Day 22 or end-of-treatment): individual subjects
Excerpt: (§2) Flow cytometry was used to determine the levels of Grb2 and pErk proteins in the circulating leukemia cells of patients who were on BP1001 single agent therapy, and were reported as median fluorescent intensity (MFI). MFI of Grb2 and pErk during treatment were compared to those at baseline.
Peripheral blood was collected from patients in cohorts 3, 4, 5, and 6, before being dosed on Cycle 1 days 1, 8, 15 and 22, and Cycle 2 day 1. White blood cells were isolated from peripheral blood using BD Vacutainer CPT cell preparation tubes with sodium heparin (BD Dickinson), fixed and stored in −80° C. freezer. Flow cytometry was utilized to determine Grb2 and phosphorylated Erk1,2 (pErk) levels in CD33-expressing cells using a validated method (Flow Contract Site Laboratory, Bothell, Wash., USA).
as §2, with “utilized” for “used”, “baseline (Table 7).” for “baseline.”

BV173 cells = assay: Cell cycle analysis (7-AAD flow cytometry); assay type: cell-based, human; conditions: BP1001 1 day before dasatinib, harvested three days later (FIGS. 8A-D)
Description: Cells were then fixed and permeabilized for 1 h at 4° C. with 1×Fixation/Permeabilization buffer (Ebioscience, San Diego, Calif., USA). After permeabilization, cells were washed and incubated with 7-aminoactinomycin D (7-AAD, Biolegend, San Diego, Calif., USA) in the dark at 4° C. for about 30 min. Flow cytometric data acquisition was acquired using BD FACSDiva™ software (BD Biosciences, San Jose, Calif., USA). The flow cytometer was set to collect 20,000 events. Relative percentages in the different cell cycle phases (sub-G1, G1, S, G2/M) were reported.
[…] Three days later, cells were harvested and processed for flow cytometry.

[6] = Single-dose toxicity study in mice; conditions: mouse
Description: Fifteen female ICR mice (5/group) were assigned to a non-injected control group (Group IV) and two treatment groups (Groups V and VI) to receive 20 and 40 mg oligo/kg, respectively, intravenously via the tail vein as a single injection. Animals were observed daily and blood was collected for hematology and clinical chemistry evaluations at two and six weeks post injection. Animals were sacrificed following blood collection at six weeks post-injection and tissues collected for gross and microscopic evaluations of organ toxicity.

CHO cells = assay: In vitro mammalian chromosome aberration test; assay type: cell-based; conditions: non-activated and S9-activated
Description: BP1001 was tested in the chromosome aberration assay using CHO cells in both the absence and presence of an Aroclor-induced S9 activation system. A preliminary toxicity test was performed to establish the dose range for the chromosome aberration assay. The chromosome aberration assay was used to evaluate the clastogenic potential of the BP1001. Based on the findings of this study, BP1001 was concluded to be negative for the induction of structural and numerical chromosome aberrations in CHO cells in both the non-activated and the S9-activated test systems.

[7] = 15 mg/kg/dose i.v. twice weekly

Substance: BP1001: liposome-incorporated P-ethoxy antisense oligodeoxynucleotide (5′-ATATTTGGCGATGGCTTC-3′, SEQ ID NO: 1) specific to grb2 mRNA, in neutral DOPC liposomes (DNA, all [PEt], methylation of C not given here; incorporated in neutral DOPC liposomes)
- growth inhibition and decrease of ERK1,2 and Akt phosphorylation [1]: effective
- Mean survival duration ([2]; 5 mg/kg/dose i.v. twice weekly): 20.8 ± 4.7 days
- Mean survival duration ([2]; 10 mg/kg/dose i.v. twice weekly): 22.2 ± 8.7 days
- Mean survival duration [2, 7]: 44.2 ± 8.5 days
- mice surviving to 48 days (end of study) [2, 7]: 80%
- Decrease in viability [3]: 0%
- IC50 (K562): 8 µM
- Decrease in viability (K562; [BP1001] 0-12 μM): 80%
- IC50 (BV173): 8 µM
- Decrease in viability (BV173; [BP1001] 0-10 μM): 70%
- IC50 (ALL-1): 4 µM
- Decrease in viability (ALL-1; [BP1001] 0-6 μM): 100%
- Mean survival duration [4, 7]: 31.6 ± 13.1 days
- mice surviving to 40 days (end of study) ([4]; 15 mg/kg/dose i.v. twice weekly from day 1 after tumor cells): 60%
- pErk decrease (%) (Day 15) ([5]; cohort 3, 20 mg/m^2): 3% and 28% and 0%
- pErk decrease (%) (Day 22 or end-of-treatment) ([5]; cohort 3, 20 mg/m^2): 45% and 35% and 0%
- pErk decrease (%) (Day 15) ([5]; cohort 4, 40 mg/m^2): 82% and 0%
- pErk decrease (%) (Day 22 or end-of-treatment) ([5]; cohort 4, 40 mg/m^2): 91% and 0% and 27%
- pErk decrease (%) (Day 15) ([5]; cohort 5, 60 mg/m^2): 0% and 51% and 55%
- pErk decrease (%) (Day 22 or end-of-treatment) ([5]; cohort 5, 60 mg/m^2): 54% and 0% and 47%
- pErk decrease (%) (Day 15) ([5]; cohort 6, 90 mg/m^2): 0% and 54% and 42%
- pErk decrease (%) (Day 22 or end-of-treatment) ([5]; cohort 6, 90 mg/m^2): 0% (2×) and 63%
- average decrease in pErk levels ([5]; last measured sample): 52%
- samples with ≥25% decrease of pErk levels ([5]; last measured sample (end of treatment or cycle 1 day 22), MFI vs baseline): 7 out of 12
- percentage of cells in sub-G1 phase (BV173 cells): 3.1%
- WBC counts at six weeks post-injection ([6]; single i.v. 30 mg oligo/kg): Recovery
- group average WBC count at six weeks ([6]; single i.v. 40 mg oligo/kg, not statistically different than control): not fully recovered
- morbidity or mortality ([6]; single i.v. 15-40 mg oligo/kg, six weeks observation): No signs of morbidity or mortality
- drug-related lesions in examined organs ([6]; single i.v. 15-40 mg/kg): no drug-related lesions
- WBC count at two weeks post-injection ([6]; single i.v. 30 and 40 mg oligo/kg): Reduction
- induction of structural and numerical chromosome aberrations (CHO cells): negative
